US20120065187A1 (ALCON RESEARCH, LTD, priority 2008, published 2012)

Columns and labels:
human H4 = molecular target: T1, human H4 (Homo sapiens, UniProt Q9H3N8); experiment: In vitro histamine receptor cell-based assay (aequorin bioluminescence), H4 antagonism; settings: CHO-K1 cells expressing human H4, aequorin and Gα16; histamine at EC80; read-out: H4 Antagonist EC50
T1 construct: host or cells: CHO-K1
Summary of the method: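 CHO-K1 cells stably expressing human H4, Gα16 and mitochondrial aequorin, loaded with 5 μM coelenterazine-h, preincubated 15 min at room temperature with compound, then challenged with histamine at EC80.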

human H1 = molecular target: T2, human H1 (Homo sapiens, UniProt P35367); experiment: In vitro histamine receptor cell-based assay (aequorin bioluminescence), H1 antagonism; settings: CHO-K1 cells expressing human H1 and aequorin; histamine at EC80; read-out: H1 Antagonist EC50
T2 construct: host or cells: CHO-K1
T2 sequence (P35367 whole entry): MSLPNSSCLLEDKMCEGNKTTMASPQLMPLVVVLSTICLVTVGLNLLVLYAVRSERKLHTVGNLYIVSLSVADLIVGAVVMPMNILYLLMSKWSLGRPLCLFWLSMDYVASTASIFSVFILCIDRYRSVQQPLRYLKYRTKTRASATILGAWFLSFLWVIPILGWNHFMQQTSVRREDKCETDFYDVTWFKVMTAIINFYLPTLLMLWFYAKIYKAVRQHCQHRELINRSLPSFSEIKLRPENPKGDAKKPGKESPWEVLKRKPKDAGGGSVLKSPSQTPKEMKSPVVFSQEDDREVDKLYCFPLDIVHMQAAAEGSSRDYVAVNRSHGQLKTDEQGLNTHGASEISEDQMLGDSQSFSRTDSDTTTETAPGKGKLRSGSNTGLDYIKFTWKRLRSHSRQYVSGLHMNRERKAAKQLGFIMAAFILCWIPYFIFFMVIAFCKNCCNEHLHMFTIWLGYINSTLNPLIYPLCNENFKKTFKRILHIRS
Summary of the method: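 Stable CHO-K1 lines expressing human H1 or H4 (H4 with Gα16) plus mitochondrial aequorin, loaded 4 h with 5 μM coelenterazine-h at ~21 °C. Compounds preincubated 15 min, then histamine at EC80 added; bioluminescence decrease (AUC or max–min) expressed as % of positive control (diphenhydramine for H1, JNJ7777120 for H4, 10 μM).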

[1] = system: Hartley VAF outbred guinea pigs; experiment: Allergic conjunctivitis in passively sensitized guinea pigs (conjunctival EPO activity); type: in vivo; set-up: key: +: a 0.01% bid dose was statistically equivalent to dexamethasone with respect to reduction of EPO activity; −: the compound was statistically inferior to dexamethasone and not different than vehicle; settings: reduction of conjunctival EPO activity vs dexamethasone; for QD activity: ≦0.1% qd topical, 1 hour prior to ovalbumin challenge; for BID activity: 0.01% bid topical, 1 hour prior to and 8 hours after ovalbumin challenge
Protocol: Male Hartley VAF outbred guinea pigs were passively sensitized to ovalbumin by a single OD subconjunctival injection of undiluted guinea pig anti-ovalbumin antiserum 24 hours before OD topical challenge with 500 μg ovalbumin in saline. Control animals were injected with saline only and challenged with ovalbumin. To determine acute phase drug efficacy, 30 min after challenge animals were clinically scored by a masked observer for severity of signs of conjunctivitis based on a standard scale. Test compounds were administered topically 1 hour prior to challenge (QD protocol), or 1 hour prior to challenge and again 8 hours after challenge (BID protocol). Twenty-four hours after challenge, animals were euthanized and conjunctivae were harvested for determination of tissue eosinophil peroxidase (EPO) concentration as a marker of allergic inflammation. Homogenates of freshly collected tissues were prepared by shaking the tissues in 2 mL round-bottom tubes containing 0.5 mL of homogenization buffer (50 mM Tris HCl, pH 8.0, 6 mM KBr) and one 5-mm stainless steel bead on a Qiagen TissueLyser at 30 Hz for 5 min. Homogenates were frozen and thawed once, then centrifuged at 10,000 rpm for 5 min. EPO activity in supernatants was measured by reacting diluted homogenates with a solution of 6 mM o-phenylenediamine substrate and 8.8 mM H2O2 in homogenization buffer for 3 min. The reaction was stopped with 4M H2SO4 and absorbances were measured at […] on a spectrophotometric plate reader. Total EPO in samples was calculated from a standard curve of recombinant human EPO in each assay. EPO activity was normalized to total protein concentration (Pierce BCA assay) in supernatants. Background EPO activity was determined from the unsensitized, antigen-challenged control group. Percent inhibition was calculated from the sensitized, antigen-challenged, vehicle-treated control group in each experiment. Ovalbumin-injected animals dosed topically with 0.1% w/v dexamethasone (dex) served as positive control. Groups were compared by ANOVA with Dunnett's or Tukey's post-hoc tests where appropriate with significance assigned at the 95% confidence level.
The table below summarizes the results.

Row | EC50 (human H4) [µM] | EC50 (human H1) [µM] | SMILES | QD activity [1] | BID activity [1]
1 | < 10 | > 10 | Cc1nc2c3cc(C(F)(F)F)c(F)cc3nc(N3CCN(C)CC3)n2n1.Cl [Example 124, 8-fluoro-2-methyl-5-(4-methylpiperazin-1-yl)-9-(trifluoromethyl)-[1,2,4]triazolo[1,5-c]quinazoline hydrochloride] | − | 
2 | < 10 | > 10 | CN1CCN(c2nc3ccc(Br)cc3n3cnnc23)CC1 [Example 54, 8-bromo-4-(4-methylpiperazin-1-yl)-[1,2,4]triazolo[4,3-a]quinoxaline] | − | 
3 | < 10 | > 10 | Cc1nc2c3cc(Br)ccc3nc(N3CCNCC3)n2n1 [Example 136, 9-bromo-2-methyl-5-(piperazin-1-yl)-[1,2,4]triazolo[1,5-c]quinazoline] | − | 
4 | < 10 | > 10 | Cc1ccc2nc(N3CCN(C)CC3)c3nncn3c2c1 [Example 21, 8-Methyl-4-(4-methylpiperazin-1-yl)-[1,2,4]triazolo[4,3-a]quinoxaline] |  | −
5 | < 10 | > 10 | CN1CCN(c2nc3ccc(Cl)cc3c3cn(C)nc23)CC1 [Example 150, 8-Chloro-2-methyl-4-(4-methylpiperazin-1-yl)-2H-pyrazolo[3,4-c]quinoline] |  | −
6 | < 10 | > 10 | Cc1ccc2nc(N3CCN(C)CC3)n3nc(C)nc3c2c1 [Example 99, 2,9-Dimethyl-5-(4-methylpiperazin-1-yl)-[1,2,4]triazolo[1,5-c]quinazoline] | − | +
7 | < 10 | > 10 | Fc1cc(C(F)(F)F)cc2c1nc(N1CCNCC1)c1nncn12 [Example 49, 6-Fluoro-4-(piperazin-1-yl)-8-(trifluoromethyl)-[1,2,4]triazolo[4,3-a]quinoxaline] | − | 
8 | < 10 | > 10 | CN1CCN(c2nc3cc(F)c(Cl)cc3n3cnnc23)CC1 [Example 31, 8-chloro-7-fluoro-4-(4-methylpiperazin-1-yl)-[1,2,4]triazolo[4,3-a]quinoxaline] | − | 
9 | < 10 | > 10 | Fc1cc2nc(N3CCNCC3)c3nncn3c2cc1C(F)(F)F [Example 41, 7-Fluoro-4-(piperazin-1-yl)-8-(trifluoromethyl)-[1,2,4]triazolo[4,3-a]quinoxaline] | − | 
10 | < 10 | > 10 | Clc1ccc2nc(N3CCCNCC3)c3nncn3c2c1 [Example 66, 8-chloro-4-(1,4-diazepan-1-yl)-[1,2,4]triazolo[4,3-a]quinoxaline] | − | 
11 | < 10 | > 10 | Cc1nc2c3cc(F)c(C(F)(F)F)cc3nc(N3CCN(C)CC3)n2n1.Cl [Example 129, 9-fluoro-2-methyl-5-(4-methylpiperazin-1-yl)-8-(trifluoromethyl)-[1,2,4]triazolo[1,5-c]quinazoline hydrochloride] | − | 
12 | < 10 | > 10 | Cc1nc2c3cc(C(F)(F)F)c(F)cc3nc(N3CCNCC3)n2n1.Cl [Example 125, 8-fluoro-2-methyl-5-(piperazin-1-yl)-9-(trifluoromethyl)-[1,2,4]triazolo[1,5-c]quinazoline hydrochloride] | − | 

The next lines start with the compound.

Row | SMILES | EC50 (human H4) [µM] | EC50 (human H1) [µM] | QD activity [1] | BID activity [1]
13 | Cc1nc2c3cc(OC(F)(F)F)ccc3nc(N3CCN(C)CC3)n2n1.Cl [Example 133, 2-methyl-5-(4-methylpiperazin-1-yl)-9-(trifluoromethoxy)-[1,2,4]triazolo[1,5-c]quinazoline hydrochloride] | < 10 | > 10 | − | 
14 | Brc1ccc2nc(N3CCNCC3)c3nncn3c2c1 [Example 52, 8-bromo-4-(piperazin-1-yl)-[1,2,4]triazolo[4,3-a]quinoxaline] | < 10 | > 10 | − | 
15 | Cc1nc2c3ccc(C(F)(F)F)cc3nc(N3CCN(C)CC3)n2n1 [Example 109, 2-Methyl-5-(4-methylpiperazin-1-yl)-8-(trifluoromethyl)-[1,2,4]triazolo[1,5-c]quinazoline] | < 10 | > 10 |  | −
16 | Clc1ccc2nc(N3CCNCC3)c3nc[nH]c3c2c1 [Example 161, 8-Chloro-4-(piperazin-1-yl)-1H-imidazo[4,5-c]quinoline] | < 10 | < 10 |  | +
17 | CN1CCN(c2nc3cc(F)c(F)cc3n3cnnc23)CC1 [Example 37, 7,8-difluoro-4-(4-methylpiperazin-1-yl)-[1,2,4]triazolo[4,3-a]quinoxaline] | < 10 | > 10 |  | +
18 | CN1CCN(c2nc3ccc(Cl)cc3n3ccnc23)CC1 [Example 7, 8-Chloro-4-(4-methylpiperazin-1-yl)imidazo[1,2-a]quinoxaline] | < 10 | > 10 |  | −
19 | Clc1ccc2nc(N3CCNCC3)c3n[nH]cc3c2c1 [Example 153, 8-Chloro-4-(piperazin-1-yl)-2H-pyrazolo[3,4-c]quinoline] | < 10 | < 10 |  | −
20 | CN1CCN(c2nc3ccc(C(F)(F)F)cc3n3nnnc23)CC1 [Example 27, 4-(4-methylpiperazin-1-yl)-8-(trifluoromethyl)tetrazolo[1,5-a]quinoxaline] | < 10 | > 10 | − | 
21 | CN1CCN(c2nc3ccc(C(F)(F)F)cc3n3cnnc23)CC1 [Example 23, 4-(4-methylpiperazin-1-yl)-8-(trifluoromethyl)-[1,2,4]triazolo[4,3-a]quinoxaline] | < 10 | > 10 |  | +
22 | Cc1nc2c3cc(C(F)(F)F)ccc3nc(N3CCNCC3)n2n1 [Example 104, 2-Methyl-5-(piperazin-1-yl)-9-(trifluoromethyl)-[1,2,4]triazolo[1,5-c]quinazoline] | < 10 | > 10 | − | 
23 | Fc1cc2nc(N3CCNCC3)c3nncn3c2cc1Cl [Example 32, 8-chloro-7-fluoro-4-(piperazin-1-yl)-[1,2,4]triazolo[4,3-a]quinoxaline] | < 10 | > 10 |  | +
24 | Cc1nc2c3cc(Cl)c(F)cc3nc(N3CCN(C)CC3)n2n1 [Example 95, 9-Chloro-8-fluoro-2-methyl-5-(4-methylpiperazin-1-yl)-[1,2,4]triazolo[1,5-c]quinazoline] | < 10 | > 10 |  | −
25 | CN1CCN(c2nc3cc(Cl)c(Cl)cc3n3cnnc23)CC1 [Example 39, 7,8-dichloro-4-(4-methylpiperazin-1-yl)-[1,2,4]triazolo[4,3-a]quinoxaline] | < 10 | > 10 |  | +
26 | CN1CCN(c2nc3ccc(Cl)cc3c3[nH]cnc23)CC1 [Example 160, 8-Chloro-4-(4-methylpiperazin-1-yl)-1H-imidazo[4,5-c]quinoline] | < 10 | > 10 |  | −
27 | Cc1nc2c(N3CCN(C)CC3)nc3ccc(Cl)cc3c2o1 [Example 143, 8-chloro-2-methyl-4-(4-methylpiperazin-1-yl)oxazolo[4,5-c]quinoline] | < 10 | < 10 | − | +
28 | Cc1nc2c(N3CCN(C)CC3)nc3cc(F)c(F)cc3c2o1 [Example 145, 7,8-difluoro-2-methyl-4-(4-methylpiperazin-1-yl)oxazolo[4,5-c]quinoline] | < 10 | > 10 | − | 
